Usually ΔTm stands for the change in melting temperature against a reference sample. A word on the solubility: it is the dissolved amount per volume that the medium holds. As usually defined, the GI50 is the concentration giving 50% growth inhibition.

Consider twelve molecules from ChEMBL document CHEMBL3352290, “Interactions with polynucleotides and antitumor activity of amidino and imidazolinyl substituted 2-phenylbenzothiazole mesylates” (Eur J Med Chem, 2014).

Data set [1] can be described thus: Binding affinity to poly G-poly C (unknown origin) assessed as binding constant at pH7 by UV/vis titration.
Data set [2] is described as follows: Binding affinity to poly C (unknown origin) assessed as spectral changes by UV/vis spectra.
Data set [3] in a line: Binding affinity to poly A-poly U (unknown origin) assessed as binding constant at pH7 by UV/vis titration.
For data set [4], the system named is Calf thymus DNA. As to the kind of experiment: Binding affinity to calf thymus DNA assessed as spectral changes at pH7 by UV/vis spectra. In kind it is nucleic-acid assay. The settings on record: Bos taurus.
Data set [5] can be described thus: Binding affinity to poly G (unknown origin) assessed as spectral changes by UV/vis spectra.
A short description of data set [6]: Binding affinity to poly G-poly C (unknown origin) assessed as spectral changes at pH7 by UV/vis spectra.
A short description of data set [7]: Binding affinity to poly(dA-dT)2 (unknown origin) assessed as spectral changes at pH7 by UV/vis spectra.
Data set [8] in a line: Binding affinity to poly U (unknown origin) assessed as spectral changes by UV/vis spectra.
The nature of data set [9]: Binding affinity to poly A-poly U (unknown origin) assessed as change in melting temperature at pH7.
Data set [10] is described as follows: Binding affinity to poly A-poly U (unknown origin) assessed as spectral changes at pH7 by UV/vis spectra.
Data set [11] can be described thus: Binding affinity to poly(dA-dT)2 (unknown origin) assessed as change in melting temperature at pH7.
Data set [12] concerns Calf thymus DNA. As to the kind of experiment: Binding affinity to calf thymus DNA assessed as binding constant at pH7 by UV/vis titration. It counts as nucleic-acid assay. The settings on record: Bos taurus.
The nature of data set [13]: Binding affinity to poly G (unknown origin) assessed as binding constant at pH7 by UV/vis titration.
For data set [14], the system named is Calf thymus DNA. As to the kind of experiment: Binding affinity to calf thymus DNA assessed as change in melting temperature at pH7. The note with it: Bos taurus. It counts as nucleic-acid assay.
Data set [15] in a line: Binding affinity to poly U (unknown origin) assessed as binding constant at pH7 by UV/vis titration.
Data set [16] in a line: Binding affinity to poly(dA-dT)2 (unknown origin) assessed as binding constant at pH7 by UV/vis titration.
A short description of data set [17]: Binding affinity to poly C (unknown origin) assessed as binding constant at pH7 by UV/vis titration.
The nature of data set [18]: Binding affinity to poly A (unknown origin) assessed as binding constant at pH7 by UV/vis titration.
Data set [19] can be described thus: Binding affinity to poly A (unknown origin) assessed as spectral changes by UV/vis spectra.
The nature of data set [20]: Solubility of the compound in water at 22 degC. It counts as physicochemical.
The test system of a further data set is MCF7. As to the kind of experiment: Antiproliferative activity against human MCF7 cells assessed as growth inhibition after 72 hrs by MTT assay. It counts as functional. The settings on record: MCF7, 72 h. A general note: Tetrazolium assays rely on reduction of a dye to a coloured formazan, in cell work by metabolically active cells.
A further data set deals with HeLa. As to the kind of experiment: Antiproliferative activity against human HeLa cells assessed as growth inhibition after 72 hrs by MTT assay. It counts as functional.
For the next data set, the system named is SW-620. As to the kind of experiment: Antiproliferative activity against human SW620 cells assessed as growth inhibition after 72 hrs by MTT assay. It counts as functional. The settings on record: SW-620, 72 h.
The test system of another data set is Mus musculus. As to the kind of experiment: Acute oral toxicity in po dosed BALB/C mouse after 24 hrs. It counts as organism-based. The arrangement: unit not given here. The settings on record: in vivo.
The nature of data set [21]: Antiproliferative activity against human MIAPaCa2 cells assessed as growth inhibition after 72 hrs by MTT assay. It counts as functional. The settings on record: MIA PaCa-2, 72 h.
A short description of data set [22]: Antiproliferative activity against human MOLT4 cells assessed as growth inhibition after 72 hrs by MTT assay. In kind it is functional. The note with it: MOLT-4, 72 h.
Data set [23] can be described thus: Antiproliferative activity against human HCT116 cells assessed as growth inhibition after 72 hrs by MTT assay. The note with it: HCT-116, 72 h. In kind it is functional.
Data set [24] in a line: Antiproliferative activity against human H460 cells assessed as growth inhibition after 72 hrs by MTT assay. In kind it is functional. The settings on record: NCI-H460, 72 h.

For `N=C(N)c1ccc2nc(-c3ccc(N)cc3)sc2c1`, the log Ks in data set [1] came out at 4.5; in [3] it was 4.55; in the data set with Calf thymus DNA [12], 4.46; in data set [13], 4.85; in [15] it was 4.81; in data set [16] it was 5.09. Further, the log Ks was 4.57 in data set [17] and 4.3 in data set [18]. Moreover, the Activity was 13.6% in [2]; 45.6% in the data set with Calf thymus DNA [4]; 23.4% in [5]; 20.3% in data set [6]; 39.8% in data set [7]; 16.3% in data set [8]. Besides, the Activity in data set [10] is 71.6%; in data set [19], 23%. The ΔTm came out at 1.3 °C in [9], 2.8 °C in data set [11] and 0.7 °C in the data set on Calf thymus DNA [14].
Take `Cl.N=C(N)c1ccc(-c2nc3ccc(N)cc3s2)cc1.O`: the solubility in data set [20] stood at 700 µg/mL.
On to `Nc1ccc(-c2nc3ccc(C4=NCCN4)cc3s2)cc1`, for which the log Ks in data set [1] was 4.89; in [3] it was 5.44; in the data set with Calf thymus DNA [12] it was 5.23; in [13], 6.46; in [15], 4.77; in data set [16], 5.41. The log Ks in data set [17] worked out at 5.11; in data set [18], 5.6. The Activity came to 16.3% in data set [2]; 37.1% in the data set on Calf thymus DNA [4]; 30.8% in [5]; 30% in data set [6]; 42.5% in [7]; 18.3% in data set [8]. In addition, the Activity was found to be 55.5% in data set [10] and 22.2% in data set [19]. For the same molecule, the ΔTm was 3.9 °C in data set [9], 2.7 °C in [11] and 0.7 °C with Calf thymus DNA [14].
The molecule `Cl.N=C(N)c1ccc2nc(-c3ccc(N)cc3)sc2c1.O` gave a solubility in data set [20] of 3300 µg/mL.
`Cl.Nc1ccc(-c2nc3ccc(C4=NCCN4)cc3s2)cc1.O` had a solubility in data set [20] of 200 µg/mL.
For the molecule `CS(=O)(=O)O.N=C(N)c1ccc2nc(-c3ccc(N)cc3)sc2c1.O`, the GI50 was found to be 15.1 µM in the data set with MCF7; 17.5 µM in the data set on HeLa; 4.7 µM with SW-620; 8.5 µM in data set [21]; 2.2 µM in data set [22]; 6.1 µM in data set [23]. Also, the GI50 in data set [24] is 3.2 µM. In the data set on Mus musculus, this molecule came in with an LD50 of 26.1. Besides, the concentration in solution in data set [20] (solubility) came to 1100 µg/mL.
`CS(=O)(=O)O.Nc1ccc(-c2nc3ccc(C4=NCCN4)cc3s2)cc1`: the GI50 amounted to 11.3 µM with MCF7; 16.6 µM in the data set on HeLa; 1.1 µM in the data set with SW-620; 1.4 µM in [21]; 3.2 µM in data set [22]; 1.4 µM in data set [23]. Besides, the GI50 in [24] was 0.5 µM. The LD50 in the data set with Mus musculus is listed as 175. Further, the concentration in solution in data set [20] (solubility) was 130000 µg/mL.
Regarding `Nc1ccc2nc(-c3ccc(C4=NCCN4)cc3)sc2c1`, the log Ks stood at 5.1 in [1]; 4.94 in data set [3]; 4.77 with Calf thymus DNA [12]; 5.61 in data set [13]; 4.43 in [15]; 5.19 in data set [16]. The log Ks amounted to 5.23 in [17] and 4.83 in data set [18]. Moreover, the Activity came to 16.5% in data set [2]; 38.1% with Calf thymus DNA [4]; 28.6% in [5]; 23.9% in data set [6]; 41.1% in [7]; 17.5% in [8]. Moreover, the Activity worked out at 53.1% in [10] and 29.5% in [19]. The ΔTm was 1.3 °C in data set [9], 2.1 °C in data set [11] and 0 °C with Calf thymus DNA [14].
As for `CS(=O)(=O)O.N=C(N)c1ccc(-c2nc3ccc(N)cc3s2)cc1`, the GI50 with MCF7 amounted to 1.8 µM; in the data set on HeLa it was 21 µM; in the data set on SW-620 it was 3.5 µM; in data set [21], 9.7 µM; in data set [22], 2.8 µM; in data set [23], 1.6 µM. For the same molecule, in [24], the GI50 stood at 0.3 µM. For the same molecule, the LD50 with Mus musculus is given as 31.5. In addition, the concentration in solution in [20] (solubility) was 12500 µg/mL.
As to `N=C(N)c1ccc(-c2nc3ccc(N)cc3s2)cc1`, the log Ks is 4.4 in data set [1]; 4.5 in data set [3]; 4.48 in the data set with Calf thymus DNA [12]; 4.6 in data set [13]; 5.15 in [15]; 5.04 in data set [16]. Moreover, the log Ks in data set [17] was found to be 4.19; in data set [18] it was 3.99. Moreover, the Activity in [2] was 13%; in the data set on Calf thymus DNA [4], 42.2%; in data set [5] it was 33.5%; in data set [6] it was 25.3%; in data set [7], 37.5%; in data set [8], 14.7%. The Activity in data set [10] is 45.5%; in [19], 24.3%. For the same molecule, the results for the ΔTm (in data set [9]; in data set [11]; with Calf thymus DNA [14]) were 1 °C, 2 °C and 0 °C, respectively.
Take `CS(=O)(=O)O.Nc1ccc2nc(-c3ccc(C4=NCCN4)cc3)sc2c1`: the GI50 in the data set with MCF7 worked out at 6.7 µM; in the data set on HeLa, 17.9 µM; with SW-620, 1.2 µM; in [21] it was 1.1 µM; in [22], 2.3 µM; in data set [23] it was 1.4 µM. In addition, the GI50 in [24] turned out to be 0.4 µM. The LD50 in the data set on Mus musculus is 74.7. Further, the concentration in solution in data set [20] (solubility) was 145000 µg/mL.
Take `Cl.Nc1ccc2nc(-c3ccc(C4=NCCN4)cc3)sc2c1.O`: the solubility in data set [20] stood at 600 µg/mL.
